Source: PubChem BioAssay (NCI)
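Briefly, cells in 96-well plates were exposed to five compound concentrations for 48 h, and endpoints were estimated by linear interpolation. At the TGI there is no net growth.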

Key:
Experiment in all cases: inhibition of tumour cell growth, NCI panel, 48 h
HOP-18 NSCLC = test system: HOP-18 NSCLC
TK-10 renal = test system: TK-10 renal
NCI-H23 lung = test system: NCI-H23 lung
CAKI-1 renal = test system: CAKI-1 renal
SK-MEL-2 melanoma = test system: SK-MEL-2 melanoma
DMS 273 small cell lung = test system: DMS 273 small cell lung
LOX IMVI melanoma = test system: LOX IMVI melanoma
SN12C renal = test system: SN12C renal
EKVX NSCLC = test system: EKVX NSCLC
KM12 colon = test system: KM12 colon
SK-MEL-5 melanoma = test system: SK-MEL-5 melanoma
RPMI-8226 leukemia = test system: RPMI-8226 leukemia
UACC-257 melanoma = test system: UACC-257 melanoma
DLD-1 colon = test system: DLD-1 colon
COLO 205 colon = test system: COLO 205 colon
786-0 renal = test system: 786-0 renal
M14 melanoma = test system: M14 melanoma
A498 renal = test system: A498 renal
U251 CNS = test system: U251 CNS
OVCAR-4 ovarian = test system: OVCAR-4 ovarian
RXF 393 renal = test system: RXF 393 renal
SF-295 CNS = test system: SF-295 CNS
NCI-H226 lung = test system: NCI-H226 lung
NCI-H460 lung = test system: NCI-H460 lung
MOLT-4 leukemia = test system: MOLT-4 leukemia
ACHN renal = test system: ACHN renal
HT29 colon = test system: HT29 colon
RXF-631 renal = test system: RXF-631 renal
OVCAR-5 ovarian = test system: OVCAR-5 ovarian
HOP-92 NSCLC = test system: HOP-92 NSCLC
K-562 leukemia = test system: K-562 leukemia
OVCAR-3 ovarian = test system: OVCAR-3 ovarian
IGROV1 ovarian = test system: IGROV1 ovarian
HL-60(TB) leukemia = test system: HL-60(TB) leukemia
UACC-62 melanoma = test system: UACC-62 melanoma
SNB-19 CNS = test system: SNB-19 CNS
M19-MEL melanoma = test system: M19-MEL melanoma
HCT-15 colon = test system: HCT-15 colon
MALME-3M melanoma = test system: MALME-3M melanoma
UO-31 renal = test system: UO-31 renal
CCRF-CEM leukemia = test system: CCRF-CEM leukemia
SW-620 colon = test system: SW-620 colon
XF 498 CNS = test system: XF 498 CNS
SK-OV-3 ovarian = test system: SK-OV-3 ovarian
LXFL 529 NSCLC = test system: LXFL 529 NSCLC
A549 NSCLC = test system: A549 NSCLC
OVCAR-8 ovarian = test system: OVCAR-8 ovarian
NCI-H522 lung = test system: NCI-H522 lung
KM20L2 colon = test system: KM20L2 colon
SF-539 CNS = test system: SF-539 CNS
SR leukemia = test system: SR leukemia
DMS 114 small cell lung = test system: DMS 114 small cell lung
HCT-116 colon = test system: HCT-116 colon
HOP-62 NSCLC = test system: HOP-62 NSCLC
SNB-75 CNS = test system: SNB-75 CNS
SF-268 CNS = test system: SF-268 CNS
SK-MEL-28 melanoma = test system: SK-MEL-28 melanoma
SNB-78 CNS = test system: SNB-78 CNS
HCC-2998 colon = test system: HCC-2998 colon

Measured: TGI

COc1ccc(N(CC(=O)O)S(=O)(=O)c2ccccc2)cc1
not listed: SR leukemia | DMS 114 small cell lung | HCT-116 colon | HOP-62 NSCLC | SNB-75 CNS | SF-268 CNS | SK-MEL-28 melanoma | SNB-78 CNS | HCC-2998 colon
> 100 µM: all other assays above

OCC(CO)C1c2cccc3ccc4cccc1c4c23
not listed: HCT-15 colon | LXFL 529 NSCLC | NCI-H522 lung | HCC-2998 colon
> 100 µM: all other assays above

COC(=O)c1sc(=O)n(-c2ccccc2)c1SCc1ccccc1
not listed: CAKI-1 renal | A498 renal | DMS 114 small cell lung | SF-268 CNS | SNB-78 CNS
> 100 µM: all other assays above
